According to patent US20220142959A1, “LEUCINE, ACETYL LEUCINE, AND RELATED ANALOGS FOR TREATING DISEASE” (priority 2019, published 2022):

Experiments:
[1] = test system: rat primary cortical neurons (NE and NG cultures); assay: Truncated tau and neuronal markers in neuron-enriched and neuron-glia cultures; format: cell-based; conditions: for tolerability (levels of synaptophysin and βIII-tubulin vs untreated control): NE and NG cultures, 1 mM, five days (DIV 9-14); for reduction of basal levels of truncated tau: NG cultures at DIV14, 1 mM, five days
Protocol: FIG. 20 is eight Western blots of tau (5E2), synaptophysin and βIII-tubulin in rat primary cortical neurons (neuron-enriched (NE) and neuron-glia (NG) cultures) in the absence and presence of ADLL, ALL, ADL, DLL, LL, DL, and LLE (1 mM, 5 days).
The efficacy of ADLL, ALL, ADL, DLL, LL, DL, and LLE in reducing truncated tau levels in neuron-glia (NG) cultures was investigated. The results of this study are provided in FIGS. 20-24 One aim of this study was to determine whether ADLL, ALL, ADL, DLL, LL, DL, and LLE conferred intrinsic neuroprotection by sustaining neuronal function under conditions of cellular overgrowth, or whether they acted indirectly through the non-autonomous modulation of glial cells. Irrespective of whether the compounds acted directly or indirectly on neurons, preventing the generation of truncated tau confers beneficial effects to neuronal integrity.
Cultures were treated for five days (DIV 9-14) with 1 mM of ADLL, ALL, ADL, DLL, LL, DL, or LLE, and were subsequently assessed for a number of neuron-specific markers that could provide a readout on neuronal health: βIII-tubulin, full-length tau, truncated tau (antibody 5E2) and synaptophysin. ADLL, ALL, ADL, DLL, LL, DL, and LLE were well-tolerated in NE and NG cultures, as evidenced by consistently equal levels of synaptophysin and βIII-tubulin detected across untreated (control) and drug-treated samples (FIGS. 20, 23, and 24). None of ADLL, ALL, ADL, DLL, LL, DL, and LLE reduced basal levels of truncated tau in NG cultures at DIV14 (FIG. 20 and FIG. 22).

LC3-II and APP-CTFs = assay: EAL flux in NPC1 mice (cerebellum LC3-II and APP-CTFs); format: in vivo, mouse; conditions: treated 3 weeks; for restoring autophagic flux with respect to reducing LC3-II levels: relative to untreated NPC1
Description: FIG. 14 is a histogram of the ratio of LC3-II expression to βIII-tubulin in the cerebellum of mouse NPC1 brains at 9-12 weeks of age treated with ADLL, ALL, ADL, DLL, LL, DL, LLE, and miglustat (miglu.) for 3 weeks relative to untreated NPC1 cerebellum (n=4, mean±S.E.M).
FIG. 15 is a histogram of the ratio of APP-CTFs: full-length APP expression in the cerebellum of mouse NPC1 brains at 9-12 weeks of age treated with ADLL, ALL, ADL, DLL, LL, DL, LLE, and miglustat (miglu.) for 3 weeks relative to untreated NPC1 cerebellum (n=4, mean±S.E.M).
FIG. 16 is a histogram of the ratio of APP-CTF-6: full-length APP expression in the cerebellum of mouse NPC1 brains at 9-12 weeks of age treated with ADLL, ALL, ADL, DLL, LL, DL, and LLE for 3 weeks relative to untreated NPC1 cerebellum.
FIG. 17 is a histogram of the ratio of APP-CTF-7: full-length APP expression in the cerebellum of mouse NPC1 brains at 9-12 weeks of age treated with ADLL, ALL, ADL, DLL, LL, DL, and LLE for 3 weeks relative to untreated NPC1 cerebellum (n=4, mean±S.E.M).
The efficacy of ADLL, ALL, ADL, DLL, LL, DL, and LLE in alleviating the impairment of EAL flux in NPC1 mice was investigated. […] Without wishing to be bound by any particular theory, it is possible that ADL and LLE reduced autophagic vacuole (AV) build-up by inhibiting autophagosome formation, possibly through the activation mTORC1. […] Also, acetyl L-leucine (ALL), acetyl D-leucine (ADL) and L-leucine (LL) reduced CTF-7 expression, indicating some improvement in lysosomal proteolysis (FIG. 17).

[2] = test system: rat primary cortical neurons; assay: U18666A-mediated impairment of lysosomal fusion in rat primary cortical neurons; format: cell-based; conditions: for CTF-6 and -7 (endosomal-lysosomal fusion) / LC3-II levels: co-treated with U18666A (2 μg/mL) and compound 1 mM
Protocol: (§1) FIG. 18. is a histogram of the ratio of LC3-II normalised to βIII tubulin (expressed as a percentage of untreated (n=1)) in rat primary cortical neurons that were treated with U18666A (2 μg/ml, 24 hr) in the absence or presence of ADLL, ALL, ADL, DLL, LL, DL, and LLE (1 mM, 24 hr).
as §1, with “19” for “18.”, “is” for “is a”, “APP-CTFs-6 and -7” for “LC3-II”, “their respective CTFs in untreated cells” for “βIII tubulin”, “(n=1)” for “(n=1))”
The efficacy of ADLL, ALL, ADL, DLL, LL, DL, and LLE in alleviating the U18666A-mediated impairment of autophagosome-lysosome fusion and endosomal lysosomal fusion was investigated. In this cell-based assay of impaired EAL flux, the reappearance of basal levels of APP CTFs-6 and -7, provided an indication of improved endosomal-lysosomal fusion.
Neurons were co-treated with U18666A (2 μg/mL) along with ADLL, ALL, ADL, DLL, LL, DL, and LLE (1 mM, 24 h).

[3] = test system: CD68 positive activated microglia; assay: CD68 positive activated microglia in cerebellum of Npc1−/− mice; format: in vivo; conditions: 59 days of age, compared to Npc1−/− UT
Description: (§2) FIG. 46 is an image showing cerebellar Purkinje cell loss progressing from anterior to posterior lobes and microglial activation in untreated Npc1^−/− mice and Npc1^−/− mice treated with ADLL, ALL, and ADL. Cerebellums were stained with calbindin-b (Purkinje cells) or CD68 (activated microglia).
FIG. 48 is a scatter graph showing frequency of CD68 positive activated microglia at 59 days of age in untreated Npc1^−/− mice and Npc1^−/− mice treated with ADLL, ALL, and ADL. CD68 cell density was measured in the cerebellum. n=5 animals per group. Mean±SD, *** p<0.0009 (one-way ANOVA).
(§3) The combination of increased survival of neurons and a less inflammatory environment in the brain could improve brain function, quality of life, and delay the progression of disease in human subjects.

[4] = test system: cerebellar Purkinje cells; assay: Purkinje cell survival in Npc1−/− mice; format: in vivo
Description: as §2
FIG. 47 is a scatter graph showing Purkinje cell survival at 59 days of age in untreated Npc1^−/− mice and Npc1^−/− mice treated with ADLL, ALL, and ADL.
as §3

[5] = test system: traumatic brain injury patient; assay: Case report: patient with traumatic brain injury given acetyl-DL-leucine; format: in vivo, human; conditions: TBI patient
Protocol: A patient suffering from traumatic brain injury was administered acetyl-DL-leucine at a dose of 3 g per day for the first week, followed by a dose of 5 g per day.

[6] = test system: patients with cerebellar ataxia; conditions: cited from earlier work
LC3-II = conditions: WO 2018/029658; cited from earlier work
[7] = test system: patients with Niemann-Pick Type C (NPC); conditions: one-month study, 12 patients; cited from earlier work
patients with ataxia = conditions: in responders; cited from earlier work
[8] = 59 days of age, relative to untreated Npc1−/− littermates

CCOC(=O)[C@@H](N)CC(C)C [LLE, L-leucine ethyl ester]
tolerability (levels of synaptophysin and βIII-tubulin vs untreated control) [1]: well-tolerated | reduction of basal levels of truncated tau [1]: None | reduction in APP-CTFs, particularly CTF-6 and -7 (LC3-II and APP-CTFs): not accompanied by a concomitant reduction | restoring autophagic flux with respect to reducing LC3-II levels (LC3-II and APP-CTFs): effective in restoring autophagic flux | CTF-6 and -7 (endosomal-lysosomal fusion) ([2]; 24 h): reappearance of basal amounts

CC(C)C[C@@H](N)C(=O)O [DL, D-leucine]
tolerability (levels of synaptophysin and βIII-tubulin vs untreated control) [1]: well-tolerated | reduction of basal levels of truncated tau [1]: None | CTF-7 expression / clearance (LC3-II and APP-CTFs): positive effects | CTF-6 and -7 (endosomal-lysosomal fusion) ([2]; 24 h): reappearance of basal amounts

CC(=O)N[C@H](CC(C)C)C(=O)O [ADL, acetyl-D-leucine]
tolerability (levels of synaptophysin and βIII-tubulin vs untreated control) [1]: well-tolerated | reduction of basal levels of truncated tau [1]: None | impact on frequency of CD68 positive activated microglia [3]: did not have an impact | CTF-7 expression / clearance (LC3-II and APP-CTFs): reduced | CTF-6 and -7 (endosomal-lysosomal fusion) ([2]; 24 h): reappearance of basal amounts | LC3-II levels ([2]; 24 h): lower than the basal levels | Purkinje cell survival in any cerebellar lobules ([4]; 59 days of age, compared to Npc1−/− UT): did not improve | long-term neuroprotective effects ([4]; Npc1−/− mice): did not mediate any

CC(C)C[C@H](N)C(=O)O [LL, L-leucine]
tolerability (levels of synaptophysin and βIII-tubulin vs untreated control) [1]: well-tolerated | reduction of basal levels of truncated tau [1]: None | CTF-6 accumulation (LC3-II and APP-CTFs): did reduce | CTF-7 expression / clearance (LC3-II and APP-CTFs): reduced | CTF-6 and -7 (endosomal-lysosomal fusion) ([2]; 24 h): reappearance of basal amounts

CC(=O)NC(CC(C)C)C(=O)O (racemic) [ADLL, acetyl-DL-leucine]
tolerability (levels of synaptophysin and βIII-tubulin vs untreated control) [1]: well-tolerated | reduction of basal levels of truncated tau [1]: None | behaviour / level of activity after treatment ([5]; 3 g per day first week, then 5 g per day): more active behaviour | level of activity after medication was stopped ([5]; medication stopped): returned to its original level | impact on frequency of CD68 positive activated microglia [3]: did not have an impact | benefit, another case series (Pelz et al. 2015) ([6]; cerebellar patients): did not find benefit | cerebellar ataxia symptoms, case series (Strupp et al. 2013) ([6]; cerebellar patients): symptomatic improvement | temporal gait variability (quantitative gait analysis) ([6]; patients with cerebellar ataxia): improved | reduction in APP-CTFs, particularly CTF-6 and -7 (LC3-II and APP-CTFs): not accompanied by a concomitant reduction | restoring autophagic flux with respect to reducing LC3-II levels (LC3-II and APP-CTFs): effective in restoring autophagic flux | LC3-II in NPC1 mouse brain (LC3-II): lowering of LC3-II | ataxia symptoms in NPC patients [7]: symptomatic improvement of ataxia | metabolism in the midbrain and lower brainstem (PET) (patients with ataxia): increased metabolism | CTF-6 and -7 (endosomal-lysosomal fusion) ([2]; 24 h): reappearance of basal amounts | LC3-II levels ([2]; 24 h): lower than the basal levels | more Purkinje cells in lobule III [4, 8]: 402% | more Purkinje cells present in lobules I and II [4, 8]: 133%

CC(C)CC(N)C(=O)O (racemic) [DLL, DL-leucine]
tolerability (levels of synaptophysin and βIII-tubulin vs untreated control) [1]: well-tolerated | reduction of basal levels of truncated tau [1]: None | CTF-6 and -7 (endosomal-lysosomal fusion) ([2]; 24 h): reappearance of basal amounts

CCN(CC)CCO[C@H]1CC[C@@]2(C)C(=CC[C@@H]3[C@@H]2CC[C@]2(C)C(=O)CC[C@@H]32)C1 [U18666A, reference compound]
CTFs-6 and 7 ([2]; U18666A alone 2 μg/mL, 24 hr, DIV14): complete absence | LC3-II accumulation ([2]; U18666A alone, 24 h): did not cause an increase
